In this assay the target is PDE4B (Homo sapiens, UniProt Q07343). Nature of the assay: Scintillation Proximity Assay (SPA) of PDE4B enzyme activity ([H3]-cAMP cleavage). Particulars: test substance 1 μM; one-hour incubation of [H3]-cAMP with PDE4B enzyme at 30° C. The assay is classed as biochemical. How it is done:
The inhibitions (in %) at 1 μM of the individual Example substances are given in the following Table of Examples and were determined as follows:
The Scintillation Proximity Assay (SPA) (GE Healthcare, No. TRKQ7090) was carried out by using the different affinities of cyclic 3′-5′-adenosinemonophosphate (cAMP, low affinity) and linear 5′-adenosinemonophosphate (AMP, high affinity) for yttrium silicate scintillator beads. The cAMP specific phosphodiesterase (PDE) PDE4B cleaves the 3′-phosphoester bond of tritium-labelled [H3]-cAMP to form [H3]-5′-AMP. This [H3]-AMP accumulates on the scintillator beads because of its higher affinity for them and causes scintillation events (flashes of light) which are measured in a Wallac Microbeta Scintillation Counter.
The experiment starts with a one-hour incubation of [H3]-cAMP with the PDE4B enzyme in assay buffer at 30° C., in each case once with the Example substance to be tested (in a concentration of 1 μM) and once without the Example substance to be tested.
After this incubation, the reaction is stopped by the addition of the beads. The beads have an opportunity to settle in the next 45 minutes, then the measurement is carried out in the Scintillation Counter. If the substance is capable of inhibiting the enzymatic activity of the PDE4B, less [H3]-AMP is produced during the incubation phase and fewer scintillation events can be measured.
(In general: In a scintillation proximity assay essentially only radioactivity close to the scintillant gives light.)
Sequence of PDE4B (Q07343 whole entry, species assumed): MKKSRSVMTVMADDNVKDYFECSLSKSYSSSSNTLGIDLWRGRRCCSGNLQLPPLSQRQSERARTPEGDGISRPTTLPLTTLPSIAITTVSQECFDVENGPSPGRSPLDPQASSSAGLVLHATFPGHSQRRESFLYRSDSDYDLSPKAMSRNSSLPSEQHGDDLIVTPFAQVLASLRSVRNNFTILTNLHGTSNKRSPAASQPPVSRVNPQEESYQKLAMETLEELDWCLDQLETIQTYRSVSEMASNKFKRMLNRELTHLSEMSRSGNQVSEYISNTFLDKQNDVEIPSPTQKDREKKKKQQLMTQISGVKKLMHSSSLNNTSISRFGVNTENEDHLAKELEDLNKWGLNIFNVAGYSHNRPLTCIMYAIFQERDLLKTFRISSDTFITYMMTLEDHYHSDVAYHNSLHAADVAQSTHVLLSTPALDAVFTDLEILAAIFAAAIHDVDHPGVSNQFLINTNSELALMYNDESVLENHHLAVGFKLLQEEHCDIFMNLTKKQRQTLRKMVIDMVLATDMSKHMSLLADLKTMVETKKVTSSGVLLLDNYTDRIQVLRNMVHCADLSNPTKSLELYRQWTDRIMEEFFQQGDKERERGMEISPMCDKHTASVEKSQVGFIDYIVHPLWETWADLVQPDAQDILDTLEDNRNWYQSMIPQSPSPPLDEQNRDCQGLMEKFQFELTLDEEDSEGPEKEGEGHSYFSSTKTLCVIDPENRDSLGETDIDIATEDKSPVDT
`[O-][S+]1CCc2nc(N3CCC(c4ccc(F)cc4F)CC3)nc(NC3(CO)CC3)c21` (centres unmarked) [Example 89, (1-{2-[4-(2,4-Difluorophenyl)-Piperidin-1-Yl]-5-Oxo-6,7-Dihydro-5H-5λ^4-Thieno[3,2-d]Pyrimidin-4-Ylamino}-Cyclopropyl)-Methanol] came in with an inhibition at 1 µM of 93%.
The result for `[O-][S+]1CCc2nc(N3CCC(c4ccc(F)cc4F)CC3)nc(NC3CCOCC3)c21` (centres unmarked) [Example 90, {2-[4-(2,4-Difluorophenyl)-Piperidin-1-Yl]-5-Oxo-6,7-Dihydro-5H-5λ^4-Thieno[3,2-d]Pyrimidin-4-Yl}-(Tetrahydropyran-4-Yl)-Amine] reads 92%.
The result for `[O-][S+]1CCc2nc(N3CCC(c4cc(Cl)cc(Cl)c4)CC3)nc(NC3(CO)CC3)c21` (centres unmarked) [Example 91, (1-{2-[4-(3,5-Dichlorophenyl)-Piperidin-1-Yl]-5-Oxo-6,7-Dihydro-5H-5λ^4-Thieno[3,2-d]Pyrimidin-4-Ylamino}-Cyclopropyl)-Methanol] reads 94%; that for `[O-][S+]1CCc2nc(N3CCC(c4ccc(Br)cc4)CC3)nc(NC3(CO)CC3)c21` (centres unmarked) [Example 92, (1-{2-[4-(4-Bromophenyl)-Piperidin-1-Yl]-5-Oxo-6,7-Dihydro-5H-5λ^4-Thieno[3,2-d]Pyrimidin-4-Ylamino}-Cyclopropyl)-Methanol], 94%; that for `[O-][S+]1CCc2nc(N3CCC(c4ccc(Br)cc4)CC3)nc(NC3CCOCC3)c21` (centres unmarked) [Example 93, {2-[4-(4-Bromophenyl)-Piperidin-1-Yl]-5-Oxo-6,7-Dihydro-5H-5λ^4-Thieno[3,2-d]Pyrimidine-4-Yl}-(Tetrahydropyran-4-Yl)-Amine], 94%.
The result for `[O-][S+]1CCc2nc(N3CCC(c4cccc(Br)c4)CC3)nc(NC3(CO)CC3)c21` (centres unmarked) [Example 94] reads 94%; that for `[O-][S+]1CCc2nc(N3CCC(c4ccc(C(F)(F)F)cc4)CC3)nc(NC3(CO)CC3)c21` (centres unmarked) [Example 95, (1-{5-Oxo-2-[4-(4-Trifluoromethylphenyl)-Piperidin-1-Yl]-6,7-Dihydro-5H-5λ^4-Thieno[3,2-d]Pyrimidin-4-Ylamino}-Cyclopropyl)-Methanol], 93%; that for `[O-][S+]1CCc2nc(N3CCC(c4ccc(C(F)(F)F)cc4)CC3)nc(NC3CCOCC3)c21` (centres unmarked) [Example 96, {5-Oxo-2-[4-(4-Trifluoromethylphenyl)-Piperidin-1-Yl]-6,7-Dihydro-5H-5λ^4-Thieno[3,2-d]Pyrimidin-4-Yl}-(Tetrahydropyran-4-Yl)-Amine], 94%.
Take `[O-][S+]1CCc2nc(N3CCC(c4cc(Cl)cc(Cl)c4)CC3)nc(NC3CCOCC3)c21` (centres unmarked) [Example 97, {2-[4-(3,5-Dichlorophenyl)-Piperidin-1-Yl]-5-Oxo-6,7-Dihydro-5H-5λ^4-Thieno[3,2-d]Pyrimidin-4-Yl}-(Tetrahydropyran-4-Yl)-Amine]: the inhibition at 1 µM was found to be 93%.
The result for `[O-][S+]1CCc2nc(N3CCC(c4nc5ccccc5o4)CC3)nc(NC3(CO)CC3)c21` (centres unmarked) [Example 98, {1-[2-(4-Benzoxazol-2-Yl-Piperidin-1-Yl)-5-Oxo-6,7-Dihydro-5H-5λ^4-Thieno[3,2-d]Pyrimidin-4-Ylamino]-Cyclopropyl}-Methanol] reads 97%; that for `[O-][S+]1CCc2nc(N3CCC(c4nc5ccccc5o4)CC3)nc(NC3CCOCC3)c21` (centres unmarked) [Example 99, [2-(4-Benzoxazol-2-Yl-Piperidin-1-Yl)-5-Oxo-6,7-Dihydro-5H-5λ^4-Thieno[3,2-d]Pyrimidin-4-Yl]-(Tetrahydropyran-4-Yl)-Amine], 97%; that for `CN1C[C@@H](Nc2nc(N3CCC(c4nc5ccccc5o4)CC3)nc3c2[S+]([O-])CC3)CCC1=O` (stereo partly drawn) [Example 100, (S)-5-[2-(4-Benzoxazol-2-Yl-Piperidin-1-Yl)-5-Oxo-6,7-Dihydro-5H-5λ^4-Thieno[3,2-d]Pyrimidin-4-Ylamino]-1-Methylpiperidin-2-One], 97%.
The result for `COc1ccc(C2CCN(c3nc4c(c(NC5(CO)CC5)n3)[S+]([O-])CC4)CC2)cc1` (centres unmarked) [Example 101] reads 94%; that for `COC(=O)c1ccc(C2CCN(c3nc4c(c(NC5(CO)CC5)n3)[S+]([O-])CC4)CC2)cc1` (centres unmarked) [Example 103], 95%; that for `COC(=O)c1cccc(C2CCN(c3nc4c(c(NC5(CO)CC5)n3)[S+]([O-])CC4)CC2)c1` (centres unmarked) [Example 104], 95%.
In the case of `[O-][S+]1CCc2nc(N3CCC(c4noc5cc(F)ccc45)CC3)nc(NC3(CO)CC3)c21` (centres unmarked) [Example 105], the inhibition at 1 µM came to 95%.
The result for `[O-][S+]1CCc2nc(N3CCC(c4noc5ccc(F)cc45)CC3)nc(NC3(CO)CC3)c21` (centres unmarked) [Example 106] reads 95%; that for `N#Cc1cccc(C2CCN(c3nc4c(c(NC5(CO)CC5)n3)[S+]([O-])CC4)CC2)c1` (centres unmarked) [Example 107], 94%; that for `[O-][S+]1CCc2nc(N3CCC(c4nnc5ccccn45)CC3)nc(NC3(CO)CC3)c21` (centres unmarked) [Example 108], 88%.
`[O-][S+]1CCc2nc(N3CCC4(CC3)OCc3ccccc34)nc(NC3(CO)CC3)c21` (centres unmarked) [Example 109] came in with an inhibition at 1 µM of 75%.
The result for `[O-][S+]1CCc2nc(N3CCC(c4cc5ccccc5o4)CC3)nc(NC3(CO)CC3)c21` (centres unmarked) [Example 110] reads 97%; that for `[O-][S+]1CCc2nc(N3CCC(c4ccc5ccccc5c4)CC3)nc(NC3(CO)CC3)c21` (centres unmarked) [Example 111], 96%.
The result for `[O-][S+]1CCc2nc(N3CCC(c4nnc(-c5ccc(F)cc5)o4)CC3)nc(NC3(CO)CC3)c21` (centres unmarked) [Example 112] reads 95%; that for `CC(C)c1noc(C2CCN(c3nc4c(c(NC5(CO)CC5)n3)[S+]([O-])CC4)CC2)n1` (centres unmarked) [Example 113], 92%.
The result for `[O-][S+]1CCc2nc(N3CCC(c4cc(-c5ccco5)n[nH]4)CC3)nc(NC3(CO)CC3)c21` (centres unmarked) [Example 114] reads 96%; that for `[O-][S+]1CCc2nc(N3CCC(c4nc(-c5cccnc5)no4)CC3)nc(NC3(CO)CC3)c21` (centres unmarked) [Example 115], 94%.
In turn, `[O-][S+]1CCc2nc(N3CCC(c4nc(-c5ccncc5)no4)CC3)nc(NC3(CO)CC3)c21` (centres unmarked) [Example 116] returned an inhibition at 1 µM of 94%.
The result for `COc1ccc(C2CCN(c3nc4c(c(NC5CCOCC5)n3)[S+]([O-])CC4)CC2)cc1` (centres unmarked) [Example 117] reads 94%; that for `[O-][S+]1CCc2nc(N3CCC(c4nc5cc(Cl)ccc5s4)CC3)nc(NC3CCOCC3)c21` (centres unmarked) [Example 118], 96%.
Consider `COC(=O)c1ccc(C2CCN(c3nc4c(c(NC5CCOCC5)n3)[S+]([O-])CC4)CC2)cc1` (centres unmarked) [Example 119], for which the inhibition at 1 µM stood at 95%.
The result for `COC(=O)c1cccc(C2CCN(c3nc4c(c(NC5CCOCC5)n3)[S+]([O-])CC4)CC2)c1` (centres unmarked) [Example 120] reads 95%.
The result for `[O-][S+]1CCc2nc(N3CCC(c4noc5cc(F)ccc45)CC3)nc(NC3CCOCC3)c21` (centres unmarked) [Example 121] reads 96%; that for `[O-][S+]1CCc2nc(N3CCC(c4noc5ccc(F)cc45)CC3)nc(NC3CCOCC3)c21` (centres unmarked) [Example 122], 96%.
The result for `N#Cc1cccc(C2CCN(c3nc4c(c(NC5CCOCC5)n3)[S+]([O-])CC4)CC2)c1` (centres unmarked) [Example 123] reads 94%; that for `[O-][S+]1CCc2nc(N3CCC(c4nnc5ccccn45)CC3)nc(NC3CCOCC3)c21` (centres unmarked) [Example 124], 89%; that for `[O-][S+]1CCc2nc(N3CCC4(CC3)OCc3ccccc34)nc(NC3CCOCC3)c21` (centres unmarked) [Example 125], 74%.
Take `[O-][S+]1CCc2nc(N3CCC(c4cc5ccccc5o4)CC3)nc(NC3CCOCC3)c21` (centres unmarked) [Example 126]: the inhibition at 1 µM came to 96%.
Compound `[O-][S+]1CCc2nc(N3CCC(c4ccc5ccccc5c4)CC3)nc(NC3CCOCC3)c21` (centres unmarked) [Example 127] showed an inhibition at 1 µM of 96%.
The result for `CC(C)c1noc(C2CCN(c3nc4c(c(NC5CCOCC5)n3)[S+]([O-])CC4)CC2)n1` (centres unmarked) [Example 129] reads 93%; that for `[O-][S+]1CCc2nc(N3CCC(c4cc(-c5ccco5)n[nH]4)CC3)nc(NC3CCOCC3)c21` (centres unmarked) [Example 130], 96%.
Turning to `[O-][S+]1CCc2nc(N3CCC(c4nc(-c5cccnc5)no4)CC3)nc(NC3CCOCC3)c21` (centres unmarked) [Example 131], at 1 µM the inhibition was 94%.
The result for `[O-][S+]1CCc2nc(N3CCC(c4nc(-c5ccncc5)no4)CC3)nc(NC3CCOCC3)c21` (centres unmarked) [Example 132] reads 95%; that for `COc1ccc(C2CCN(c3nc4c(c(Nc5cccc(F)c5)n3)[S+]([O-])CC4)CC2)cc1` (centres unmarked) [Example 133], 95%.
The result for `[O-][S+]1CCc2nc(N3CCC(c4nc5cc(Cl)ccc5s4)CC3)nc(Nc3cccc(F)c3)c21` (centres unmarked) [Example 134] reads 95%; that for `COC(=O)c1cccc(C2CCN(c3nc4c(c(Nc5cccc(F)c5)n3)[S+]([O-])CC4)CC2)c1` (centres unmarked) [Example 135], 96%.
The result for `[O-][S+]1CCc2nc(N3CCC(c4noc5cc(F)ccc45)CC3)nc(Nc3cccc(F)c3)c21` (centres unmarked) [Example 136] reads 95%; that for `[O-][S+]1CCc2nc(N3CCC(c4noc5ccc(F)cc45)CC3)nc(Nc3cccc(F)c3)c21` (centres unmarked) [Example 137], 95%.

As a reminder, the inhibition is the share of the control response that was lost under treatment.

The values are drawn from patent publication US8754073B2, “Substituted piperazino-dihydrothienopyrimidines” (Boehringer Ingelheim International GmbH, priority 2007, dated 2014).
